Measured values from patent US11542210B2, “Method of producing a monoammonium phosphate containing fertilizer solution” (Liquigro Holdings (Proprietary) Limited, priority 2016, dated 2023).

Test system: Maize
Assay: Crop application - vegetative growth (maize): spray application, damage to the plants
Assay type: in vivo
Description: When using MAP technical, it is only possible to spray a maximum of 1 kg P per ha before damage is inflicted on the plants.

SMILES: N.O=P(O)(O)O [MAP technical, monoammonium phosphate (technical)]
- maximum that can be sprayed before damage is inflicted on the plants: ≤ 1 kg P per ha
